# In patent EP1143970B1, “PYRIDINE COMPOUNDS, USE AND PREPARATION THEREOF” (priority 1999, dated 2000):
# Like-named read-outs stand apart in the source and are kept apart here. Marks after values point to notes of the source that are not given here.
# Key:
# [1] = Anti-cancer activity (test not described)
# [2] = test system: P388/0
# [3] = test system: P388/BCNU; test: Antitumor activity against IP-implanted P388/BCNU leukemia in mice
# [4] = test system: P388/CPA; test: Antitumor activity against IP-implanted P388/CPA leukemia in mice; assay type: in vivo, murine
# [5] = test system: ZR-75-1 mammary; test: In vivo antitumor activity against s.c.-implanted human tumor xenograft ZR-75-1; conditions: sc ZR-75-1
# [6] = test system: U251 CNS; test: In vivo antitumor activity against s.c.-implanted human tumor xenograft U251; conditions: sc U251; IP 90 mg/kg/dose, Days 19-23
# [7] = test system: human MX-1 mammary tumor; test: In vivo antitumor activity against s.c.-implanted human MX-1 mammary tumor xenograft; conditions: sc MX-1
# From the text: (§1) The antitumor activity data of the acyl derivatives of DM-PEN vs MX-1 human mammary tumor xenograft implanted s.c. or i.c. with intraperitoneal (i.p.) or oral drug treatment are shown in Table 1 below.
# [8] = test system: P388/L-PAM; test: Antitumor activity against IP-implanted P388/L-PAM leukemia in mice
# [9] = test system: human MX-1 mammary tumor; test: In vivo antitumor activity against i.c.-implanted human MX-1 mammary tumor xenograft; design: species or system mouse; conditions: for Median % ILS: I.C.-implanted MX-1, optimal doses (LD10 or less), schedule QD1-5, I.P., based on dying mice only
# From the text: as §1
# Table 2Comparative Activity of PEN, DM-PEN and DM-ACYL-PEN Against […] Human MX-1 Mammary Tumor at Optimal Doses (LD10 or Less) and Schedule (QD1-5) Administered I.P.
# [10] = Cytotoxicity in vitro; conditions: without metabolism
# [11] = 14C-penclomedine, tumor-bearing rats; cited from earlier work
# [12] = rats; muscle tremors, incoordination, convulsions and reduced activity; cited from earlier work
# [13] = P388/0, IP 20.0 MG/KG/DOSE, Q1D X 1 (1)
# [14] = IP 30.0 MG/KG/DOSE, Q1D X 1 (1)
# [15] = P388/0, IP 60.0 MG/KG/DOSE, Q1D X 5 (1)
# [16] = P388/0, IP 90.0 MG/KG/DOSE, Q1D X 5 (1)
# [17] = P388/0, IP 135.0 MG/KG/DOSE, Q1D X 5 (1)
# [18] = IP 60.0 MG/KG/DOSE, Q1D X 5 (1)
# [19] = IP 90.0 MG/KG/DOSE, Q1D X 5 (1)
# [20] = IP 135.0 MG/KG/DOSE, Q1D X 5 (1)
# [21] = highest nontoxic doses evaluated, difference to DM-PEN
# [22] = highest nontoxic doses evaluated, difference to PEN
# [23] = P388/L-PAM, IP 60.0 MG/KG/DOSE, Q1D X 5 (1)
# [24] = P388/L-PAM, IP 90.0 MG/KG/DOSE, Q1D X 5 (1)
# [25] = P388/L-PAM, IP 135.0 MG/KG/DOSE, Q1D X 5 (1)
structure (smiles),measurement,setting,value
"CCOc1nc(C(Cl)(Cl)Cl)c(Cl)c(OCC)c1Cl [3,5-dichloro-4,6-diethoxy-2-(trichloromethyl)pyridine]",anti-cancer activity (in words),[1],show active anti-cancer activity
"CCOc1c(Cl)c(OC)nc(C(Cl)(Cl)Cl)c1Cl [3,5-dichloro-4-ethoxy-6-methoxy-2-(trichloromethyl)pyridine]",anti-cancer activity (in words),[1],show active anti-cancer activity
"O=NN(CCCl)C(=O)NCCCl [BCNU, carmustine]",50-DAY SURV./ TOTAL,[2]; [13],3 / 6
same,% ILS,[2]; [13],+145%
same,APPROX. NET LOG10 CHANGE IN TUMOR BURDEN AT END OF Rx,[2]; [13],ca-6.8
same,50-DAY SURV./ TOTAL,"[2]; P388/0, IP 30.0 MG/KG/DOSE, Q1D X 1 (1)",6 / 6
same,50-DAY SURV./ TOTAL,"[3]; IP 20.0 MG/KG/DOSE, Q1D X 1 (1)",0 / 6
same,50-DAY SURV./ TOTAL,[3]; [14],0 / 6
same,MEDIAN DAY OF DEATH,[3]; [14],6.5
"O=P1(N(CCCl)CCCl)NCCCO1 (stereo not shown) [CPA, cyclophosphamide]",50-DAY SURV./ TOTAL,"[2]; P388/0, IP 175.0 MG/KG/DOSE, Q1D X 1 (1)",1 / 6
same,50-DAY SURV./ TOTAL,"[2]; P388/0, IP 265.0 MG/KG/DOSE, Q1D X 1 (1)",6 / 6
same,50-DAY SURV./ TOTAL,"[4]; IP 175.0 MG/KG/DOSE, Q1D X 1 (1)",0 / 6
same,50-DAY SURV./ TOTAL,"[4]; IP 265.0 MG/KG/DOSE, Q1D X 1 (1)",0 / 6
COc1nc(C(Cl)(Cl)Cl)c(Cl)c(OC(C)=O)c1Cl [DM-A-PEN],T-C,"[5]; IP 60 mg/kg/dose, Days 10-14",10.6 days
same,T-C,"[5]; IP 90 mg/kg/dose, Days 8-12",14.1 days
same,50-DAY SURV./ TOTAL,[2]; [15],0 / 6
same,50-DAY SURV./ TOTAL,[2]; [16],0 / 6
same,MEDIAN DAY OF DEATH,[2]; [16],21.5
same,50-DAY SURV./ TOTAL,[2]; [17],0 / 6
same,Lethality at the stated dosage (LD level),[2]; [17],LD33
same,MEDIAN DAY OF DEATH,[2]; [17],28.5
same,"more active than PEN, log cell kill","[2]; P388/0, highest nontoxic doses evaluated, difference to PEN",0.4 log cell kill
same,"more active than DM-PEN, log cell kill","[2]; P388/O, highest nontoxic doses evaluated, difference to DM-PEN",1.9 log cell kill
same,50-DAY SURV./ TOTAL,[4]; [18],0 / 6
same,50-DAY SURV./ TOTAL,[4]; [19],0 / 6
same,% ILS,[4]; [19],+66%
same,MEDIAN DAY OF DEATH,[4]; [19],20.5
same,50-DAY SURV./ TOTAL,[4]; [20],0 / 6
same,% ILS,[4]; [20],+127%
same,"more active than DM-PEN, log cell kill",[4]; [21],4.6 log cell kill
same,"more active than PEN, log cell kill",[4]; [22],7.4 log cell kill
same,T-C,[6],15.7 days
same,Lethality at the stated dosage (LD level),"[7]; IP 60 mg/kg/dose, Days 15-19",60 (LD20)
same,50-DAY SURV./ TOTAL,[3]; [18],1 / 6
same,50-DAY SURV./ TOTAL,[3]; [19],0 / 6
same,50-DAY SURV./ TOTAL,[3]; [20],0 / 6
same,% ILS,[3]; [20],+133%
same,Lethality at the stated dosage (LD level),[3]; [20],LD17
same,"more active than DM-PEN, log cell kill",[3]; [21],1.5 log cell kill
same,"more active than PEN, log cell kill",[3]; [22],3.5 log cell kill
same,50-DAY SDRV./ TOTAL,[8]; [23],0 / 6
same,50-DAY SDRV./ TOTAL,[8]; [24],0 / 6
same,50-DAY SDRV./ TOTAL,[8]; [25],0 / 6
same,Lethality at the stated dosage (LD level),[8]; [25],LD17
same,"more active than PEN or DM-PEN, log cell kill","[8]; P388/L-PAM, difference to PEN or DM-PEN",0.2-0.3 log cell kill
COc1nc(C(Cl)(Cl)Cl)c(Cl)c(OC(=O)c2ccccc2)c1Cl [DM-B-PEN],Tumor-Free-Surv/Total,"[9]; ic MX-1, IP 135 mg/kg/dose, Days 1-5",. 0/5
COc1nc(C(Cl)(Cl)Cl)c(Cl)c(OC(=O)c2ccco2)c1Cl [DM-F-PEN],Median % ILS,[9],108^c %
COc1nc(C(Cl)(Cl)Cl)c(Cl)c(OC(=O)CI)c1Cl [DM-IA-PEN],Lethality at the stated dosage (LD level),"[7]; IP 60 mg/kg/dose, Days 12-16",60 (LD40)
COc1nc(C(Cl)(Cl)Cl)c(Cl)c(OC(=O)c2ccncc2)c1Cl [DM-IN-PEN],Lethality at the stated dosage (LD level),"[7]; IP 90 mg/kg/dose, Days 12-16",90 (LD20)
COCC(=O)Oc1c(Cl)c(OC)nc(C(Cl)(Cl)Cl)c1Cl [DM-MA-PEN],Median % ILS,[9],126^a %
same,Median % ILS (dying mice only),"[9]; ic MX-1, IP 90 mg/kg/dose, Days 1-5",+126%
CCCCCCCC(=O)Oc1c(Cl)c(OC)nc(C(Cl)(Cl)Cl)c1Cl [DM-O-PEN],Median % ILS,[9],121^b %
"COc1nc(C(Cl)(Cl)Cl)c(Cl)c(O)c1Cl [DM-PEN, 3,5-dichloro-2-methoxy-4-hydroxy-6-(trichloromethyl)pyridine]",Median % ILS,[9],60%
same,50-DAY SURV./ TOTAL,[2]; [15],0 / 6
same,MEDIAN DAY OF DEATH,[2]; [15],18.0
same,50-DAY SURV./ TOTAL,[2]; [16],0 / 6
same,MEDIAN DAY OF DEATH,[2]; [16],18.0
same,50-DAY SURV./ TOTAL,[2]; [17],0 / 6
same,MEDIAN DAY OF DEATH,[2]; [17],8.6
same,cytotoxic agents in vitro (in words),[10],inactive
same,50-DAY SURV./ TOTAL,[4]; [18],0 / 6
same,50-DAY SURV./ TOTAL,[4]; [19],0 / 6
same,50-DAY SURV./ TOTAL,[4]; [20],0 / 6
same,50-DAY SURV./ TOTAL,[3]; [18],0 / 6
same,APPROX. NET LOG10 CHANGE IN TUMOR BURDEN AT END OF Rx,[3]; [18],+0.6
same,50-DAY SURV./ TOTAL,[3]; [19],0 / 6
same,% ILS,[3]; [19],+65%
same,50-DAY SURV./ TOTAL,[3]; [20],0 / 6
same,Lethality at the stated dosage (LD level),[3]; [20],LD17
same,50-DAY SDRV./ TOTAL,[8]; [23],0 / 8
same,APPROX. NET LOG10 CHANGE IN TUMOR BURDEN AT END OF Rx,[8]; [23],+1.5
same,MEDIAN DAY OF DEATH,[8]; [23],13.6
same,50-DAY SDRV./ TOTAL,[8]; [24],0 / 6
same,APPROX. NET LOG10 CHANGE IN TUMOR BURDEN AT END OF Rx,[8]; [24],+1.5
same,50-DAY SDRV./ TOTAL,[8]; [25],0 / 6
same,APPROX. NET LOG10 CHANGE IN TUMOR BURDEN AT END OF Rx,[8]; [25],+1.5
same,Lethality at the stated dosage (LD level),[8]; [25],1.033
COc1nc(C(Cl)(Cl)Cl)c(Cl)c(OC(=O)c2cccs2)c1Cl [DM-TC-PEN],Median % ILS,[9],100^d %
"N[C@@H](Cc1ccc(N(CCCl)CCCl)cc1)C(=O)O [L-PAM, melphalan]",50-DAY SURV./ TOTAL,"[2]; mouse, in vivo, ip, 15 mg/kg",6 / 6
same,50-DAY SURV./ TOTAL,"[2]; mouse, in vivo, ip, 20 mg/kg",6 / 6
same,APPROX. NET LOG10 CHANGE IN TUMOR BURDEN AT END OF Rx,"[2]; mouse, in vivo, ip, 20 mg/kg",ca -6.6
same,50-DAY SDRV./ TOTAL,"[8]; mouse, in vivo, ip, 15 mg/kg",0 / 6
same,APPROX. NET LOG10 CHANGE IN TUMOR BURDEN AT END OF Rx,"[8]; mouse, in vivo, ip, 15 mg/kg",-1.6
same,MEDIAN DAY OF DEATH,"[8]; mouse, in vivo, ip, 15 mg/kg",16.0
same,50-DAY SDRV./ TOTAL,"[8]; mouse, in vivo, ip, 20 mg/kg",0/6
same,APPROX. NET LOG10 CHANGE IN TUMOR BURDEN AT END OF Rx,"[8]; mouse, in vivo, ip, 20 mg/kg",-1.6
same,MEDIAN DAY OF DEATH,"[8]; mouse, in vivo, ip, 20 mg/kg",16.0
"COc1nc(C(Cl)(Cl)Cl)c(Cl)c(OC)c1Cl [PEN, 3,5-dichloro-2,4-dimethoxy-6-(trichloromethyl)pyridine]",radioactive species in the brain,[11],predominant radioactive species in the brain was penclomedine
same,Median % ILS,[9],88%
same,50-DAY SURV./ TOTAL,[2]; [15],0 / 6
same,MEDIAN DAY OF DEATH,[2]; [15],14.5
same,50-DAY SURV./ TOTAL,[2]; [16],0 / 6
same,APPROX. NET LOG10 CHANGE IN TUMOR BURDEN AT END OF Rx,[2]; [16],-0.6
same,50-DAY SURV./ TOTAL,[2]; [17],0 / 6
same,APPROX. NET LOG10 CHANGE IN TUMOR BURDEN AT END OF Rx,[2]; [17],-4.6
same,cytotoxic agents in vitro (in words),[10],inactive
same,50-DAY SURV./ TOTAL,[4]; [18],0 / 6
same,MEDIAN DAY OF DEATH,[4]; [18],10.5
same,50-DAY SURV./ TOTAL,[4]; [19],0 / 6
same,MEDIAN DAY OF DEATH,[4]; [19],10.5
same,50-DAY SURV./ TOTAL,[4]; [20],0 / 6
same,MEDIAN DAY OF DEATH,[4]; [20],10.5
same,50-DAY SURV./ TOTAL,[3]; [18],0 / 6
same,50-DAY SURV./ TOTAL,[3]; [19],0 / 6
same,50-DAY SURV./ TOTAL,[3]; [20],0 / 6
same,MEDIAN DAY OF DEATH,[3]; [20],11.5
same,neurotoxicity,[12],Dose related neurotoxicity
same,50-DAY SDRV./ TOTAL,[8]; [23],0 / 6
same,50-DAY SDRV./ TOTAL,[8]; [24],0 / 6
same,APPROX. NET LOG10 CHANGE IN TUMOR BURDEN AT END OF Rx,[8]; [24],+1.5
same,50-DAY SDRV./ TOTAL,[8]; [25],0 / 6
same,APPROX. NET LOG10 CHANGE IN TUMOR BURDEN AT END OF Rx,[8]; [25],+1.5
